Laboratory results taken from patent US9580437B2, “Triazolopyrimidine compounds and uses thereof” (Novartis AG, priority 2014, dated 2017).

Columns and labels:
[1] = target: EED (1-441)-His protein (Homo sapiens (Human), UniProt O75530); assay: EED-H3K27Me3 peptide competition binding assay by AlphaScreen; conditions: read-out: (a) IC50 EED Alphascreen binding Qualified
Text: EED-H3K27Me3 peptide competition binding assay by AlphaScreen (α-screen)

[2] = target: wild type PRC2 (wtPRC2) complex (Homo sapiens (Human), UniProt O75530); assay: EED LC-MS assay; type: biochemical; conditions: read-out: (b) IC50 EED LC-MS Qualified
Experimental: A 6 μL solution of 3 μM of the peptide substrate H3K27Me0 (histone H3[21-44]-biotin) in reaction buffer was added to initiate each reaction. […] ELISA (H3K27 Methylation) Assay

Sequence of EED (1-441)-His protein (O75530 whole entry): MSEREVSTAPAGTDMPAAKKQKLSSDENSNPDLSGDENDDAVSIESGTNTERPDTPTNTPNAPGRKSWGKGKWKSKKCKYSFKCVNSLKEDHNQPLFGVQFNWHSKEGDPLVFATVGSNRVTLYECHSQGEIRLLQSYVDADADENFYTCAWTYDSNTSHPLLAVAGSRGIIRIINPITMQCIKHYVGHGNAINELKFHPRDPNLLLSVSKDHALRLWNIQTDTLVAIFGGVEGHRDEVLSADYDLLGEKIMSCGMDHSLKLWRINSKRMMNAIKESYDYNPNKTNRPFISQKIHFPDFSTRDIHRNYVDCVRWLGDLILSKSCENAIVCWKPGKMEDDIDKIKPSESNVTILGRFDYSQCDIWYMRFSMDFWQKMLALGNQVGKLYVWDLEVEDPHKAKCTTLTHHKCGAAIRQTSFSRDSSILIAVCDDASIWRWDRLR
Sequence of wild type PRC2 (wtPRC2) complex (O75530 whole entry): as above
Sequence of wild type PRC2 (wtPRC2) complex (Q15910 whole entry partner): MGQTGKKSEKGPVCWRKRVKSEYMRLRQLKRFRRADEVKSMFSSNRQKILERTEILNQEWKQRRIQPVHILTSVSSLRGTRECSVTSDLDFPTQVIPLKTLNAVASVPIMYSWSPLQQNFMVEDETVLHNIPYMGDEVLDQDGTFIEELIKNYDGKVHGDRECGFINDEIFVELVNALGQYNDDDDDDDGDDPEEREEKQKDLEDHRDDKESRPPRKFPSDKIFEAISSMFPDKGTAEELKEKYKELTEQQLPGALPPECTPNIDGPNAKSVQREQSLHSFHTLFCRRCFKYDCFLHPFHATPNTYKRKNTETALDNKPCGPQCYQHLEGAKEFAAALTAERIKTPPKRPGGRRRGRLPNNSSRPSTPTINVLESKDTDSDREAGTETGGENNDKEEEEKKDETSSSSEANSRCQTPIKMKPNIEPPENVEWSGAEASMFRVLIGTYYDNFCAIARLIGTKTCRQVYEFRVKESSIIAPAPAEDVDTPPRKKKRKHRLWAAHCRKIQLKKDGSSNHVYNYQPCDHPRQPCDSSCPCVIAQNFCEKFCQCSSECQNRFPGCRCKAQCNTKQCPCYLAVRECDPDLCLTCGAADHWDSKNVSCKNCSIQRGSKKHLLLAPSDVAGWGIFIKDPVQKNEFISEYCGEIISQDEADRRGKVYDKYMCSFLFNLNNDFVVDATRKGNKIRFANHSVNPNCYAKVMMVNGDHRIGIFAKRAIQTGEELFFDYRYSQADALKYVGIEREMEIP
Sequence of wild type PRC2 (wtPRC2) complex (Q15022 whole entry partner): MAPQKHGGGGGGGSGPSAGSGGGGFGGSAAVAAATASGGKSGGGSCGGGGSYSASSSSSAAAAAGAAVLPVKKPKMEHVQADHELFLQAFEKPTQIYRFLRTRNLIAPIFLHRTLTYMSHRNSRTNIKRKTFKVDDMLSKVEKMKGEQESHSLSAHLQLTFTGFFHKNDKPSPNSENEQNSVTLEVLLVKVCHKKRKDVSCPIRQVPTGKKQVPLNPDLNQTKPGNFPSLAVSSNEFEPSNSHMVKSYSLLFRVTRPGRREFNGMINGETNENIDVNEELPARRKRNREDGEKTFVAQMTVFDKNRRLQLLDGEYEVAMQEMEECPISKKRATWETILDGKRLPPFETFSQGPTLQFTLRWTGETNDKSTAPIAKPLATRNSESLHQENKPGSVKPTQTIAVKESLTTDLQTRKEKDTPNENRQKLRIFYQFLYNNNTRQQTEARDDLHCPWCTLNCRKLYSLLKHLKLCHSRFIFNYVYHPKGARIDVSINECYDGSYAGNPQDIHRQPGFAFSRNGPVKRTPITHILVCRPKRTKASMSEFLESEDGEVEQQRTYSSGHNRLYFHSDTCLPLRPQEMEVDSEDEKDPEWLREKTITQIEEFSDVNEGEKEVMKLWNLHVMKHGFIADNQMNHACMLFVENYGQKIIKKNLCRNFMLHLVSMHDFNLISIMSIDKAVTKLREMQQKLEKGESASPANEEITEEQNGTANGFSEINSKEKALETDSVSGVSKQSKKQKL

Compound | IC50 [1] [nM] | IC50 [2] [nM]
FCc1ncccc1-c1cnc(NCc2c(F)ccc3c2CCO3)n2cnnc12 [Example 193, N-((5-fluoro-2,3-dihydrobenzofuran-4-yl)methyl)-8-(2-(fluoromethyl)pyridin-3-yl)-[1,2,4]triazolo[4,3-c]pyrimidin-5-amine] | 4 | 13
Fc1ccc2c(c1CNc1ncc(-c3cnccn3)c3nncn13)CCO2 [Example 205, N-((5-fluoro-2,3-dihydrobenzofuran-4-yl)methyl)-8-(pyrazin-2-yl)-[1,2,4]triazolo[4,3-c]pyrimidin-5-amine] | 7.3 | 8.2
CN(C)Cc1ccc(-c2cnc(NCc3c(F)ccc4c3CCO4)n3cnnc23)cc1 [Example 23, 8-(4-((dimethylamino)methyl)phenyl)-N-((5-fluoro-2,3-dihydrobenzofuran-4-yl)methyl)-[1,2,4]triazolo[4,3-c]pyrimidin-5-amine] | 31.1 | 25.7
Cc1c(-c2cnc(NCc3c(F)ccc4c3CCO4)n3cnnc23)ccnc1CF [Example 182, N-((5-fluoro-2,3-dihydrobenzofuran-4-yl)methyl)-8-(2-(fluoromethyl)-3-methylpyridin-4-yl)-[1,2,4]triazolo[4,3-c]pyrimidin-5-amine] | 3.1 | 5.6
Fc1ccc(-c2cnc(NCc3c(F)ccc4c3CCO4)n3cnnc23)c(Cl)c1 [Example 157, 8-(2-chloro-4-fluorophenyl)-N-((5-fluoro-2,3-dihydrobenzofuran-4-yl)methyl)-[1,2,4]triazolo[4,3-c]pyrimidin-5-amine] | 22.3 | 46.3
Cc1nc(C2CC2)ccc1-c1cnc(NCc2c(F)ccc3c2CCO3)n2cnnc12 [Example 6, 8-(6-Cyclopropyl-2-methylpyridin-3-yl)-N-((5-fluoro-2,3-dihydrobenzofuran-4-yl)methyl)-[1,2,4]triazolo[4,3-c]pyrimidin-5-amine] | 5.2 | 7.7
COc1ncc(-c2cnc(NCc3c(F)ccc4c3CCO4)n3cnnc23)cn1 [Example 174, N-((5-fluoro-2,3-dihydrobenzofuran-4-yl)methyl)-8-(2-methoxypyrimidin-5-yl)-[1,2,4]triazolo[4,3-c]pyrimidin-5-amine] | 4.7 | 6.2
Fc1ccc2c(c1CNc1ncc(F)c3nncn13)CCO2 [Example 235, 8-fluoro-N-((5-fluoro-2,3-dihydrobenzofuran-4-yl)methyl)-[1,2,4]triazolo[4,3-c]pyrimidin-5-amine] | 39.9 | 65.3
CN1CCN(c2cc(-c3cnc(NCc4cccc5occc45)n4cnnc34)ccn2)CC1 [Example 212, N-(benzofuran-4-ylmethyl)-8-(2-(4-methylpiperazin-1-yl)pyridin-4-yl)-[1,2,4]triazolo[4,3-c]pyrimidin-5-amine] | 31.2 | 33.8
Cc1nn(CCO)c(C)c1-c1cnc(NCc2c(F)ccc3c2CCO3)n2cnnc12 [Example 158, 2-(4-(5-(((5-fluoro-2,3-dihydrobenzofuran-4-yl)methyl)amino)-[1,2,4]triazolo[4,3-c]pyrimidin-8-yl)-3,5-dimethyl-1H-pyrazol-1-yl)ethanol] | 5.1 | 9.6
Cc1noc(C)c1-c1cnc(NCc2c(F)ccc3c2CCO3)n2cnnc12 [Example 71, 8-(3,5-dimethylisoxazol-4-yl)-N-((5-fluoro-2,3-dihydrobenzofuran-4-yl)methyl)-[1,2,4]triazolo[4,3-c]pyrimidin-5-amine] | 9 | 18.9
Fc1ccc2c(c1CNc1ncc(-c3ccnc(C(F)(F)F)c3)c3nncn13)CCO2 [Example 185, N-((5-fluoro-2,3-dihydrobenzofuran-4-yl)methyl)-8-(2-(trifluoromethyl)pyridin-4-yl)-[1,2,4]triazolo[4,3-c]pyrimidin-5-amine] | 4.4 | 6.7
Cc1cnccc1-c1cnc(NCc2c(F)ccc3c2CCO3)n2cnnc12 [Example 163, N-((5-fluoro-2,3-dihydrobenzofuran-4-yl)methyl)-8-(3-methylpyridin-4-yl)-[1,2,4]triazolo[4,3-c]pyrimidin-5-amine] | 4.1 | 10.9
CCOc1cc(C)c(-c2cnc(NCc3c(F)ccc4c3CCO4)n3cnnc23)cn1 [Example 196, 8-(6-ethoxy-4-methylpyridin-3-yl)-N-((5-fluoro-2,3-dihydrobenzofuran-4-yl)methyl)-[1,2,4]triazolo[4,3-c]pyrimidin-5-amine] | 3.6 | 8.2
CN(C)Cc1ccc(-c2cnc(NCc3cccc4occc34)n3cnnc23)cc1 [Example 208, N-(benzofuran-4-ylmethyl)-8-(4-((dimethylamino)methyl)phenyl)-[1,2,4]triazolo[4,3-c]pyrimidin-5-amine] | 6.2 | 12.7
Cn1ncc(-c2cnc(NCc3c(F)ccc4c3CCO4)n3cnnc23)c1CO [Example 227, (4-(5-(((5-fluoro-2,3-dihydrobenzofuran-4-yl)methyl)amino)-[1,2,4]triazolo[4,3-c]pyrimidin-8-yl)-1-methyl-1H-pyrazol-5-yl)methanol] | 6.1 | 7.5

Other lines, results leading:

IC50 [1] [nM] | IC50 [2] [nM] | Compound
7.9 | 15.9 | CS(=O)(=O)c1ccc(-c2cnc(NCc3cccc4c3CCO4)n3cnnc23)cc1 [Example 12, N-((2,3-dihydrobenzofuran-4-yl)methyl)-8-(4-(methylsulfonyl)phenyl)-[1,2,4]triazolo[4,3-c]pyrimidin-5-amine]
56.2 | 56.6 | O=S(=O)(NCCO)c1ccc(-c2cnc(NCc3cccc4c3CCO4)n3cnnc23)cc1 [Example 40, 4-(5-(((2,3-dihydrobenzofuran-4-yl)methyl)amino)-[1,2,4]triazolo[4,3-c]pyrimidin-8-yl)-N-(2-hydroxyethyl)benzenesulfonamide]
11.1 | 26.7 | COCCc1ccc(-c2cnc(NCc3cccc4c3CCO4)n3cnnc23)cn1 [Example 86, N-((2,3-dihydrobenzofuran-4-yl)methyl)-8-(6-(2-methoxyethyl)pyridin-3-yl)-[1,2,4]triazolo[4,3-c]pyrimidin-5-amine]
18.5 | 27.9 | CN1CCN(c2cc(-c3cnc(NCc4cccc5c4CCO5)n4cnnc34)ccn2)CC1 [Example 18, N-((2,3-dihydrobenzofuran-4-yl)methyl)-8-(2-(4-methylpiperazin-1-yl)pyridin-4-yl)-[1,2,4]triazolo[4,3-c]pyrimidin-5-amine]
8.6 | 16.5 | Cc1cc(S(C)(=O)=O)ccc1-c1cnc(NCc2c(F)ccc3c2CCO3)n2cnnc12 [Example 128, N-((5-fluoro-2,3-dihydrobenzofuran-4-yl)methyl)-8-(2-methyl-4-(methylsulfonyl)phenyl)-[1,2,4]triazolo[4,3-c]pyrimidin-5-amine]
25.2 | 26 | COc1ccc(-c2cnc(NCc3cccc4c3CCO4)n3cnnc23)cn1 [Example 21, N-((2,3-dihydrobenzofuran-4-yl)methyl)-8-(6-methoxypyridin-3-yl)-[1,2,4]triazolo[4,3-c]pyrimidin-5-amine]
11.7 | 14 | Cc1cc(C)c(-c2cnc(NCc3c(F)ccc4c3CCO4)n3cnnc23)cn1 [Example 222, 8-(4,6-dimethylpyridin-3-yl)-N-((5-fluoro-2,3-dihydrobenzofuran-4-yl)methyl)-[1,2,4]triazolo[4,3-c]pyrimidin-5-amine]
14.6 | 19.1 | c1cc(CNc2ncc(-c3ccc(N4CCSCC4)nc3)c3nncn23)c2c(c1)OCC2 [Example 81, N-((2,3-dihydrobenzofuran-4-yl)methyl)-8-(6-thiomorpholinopyridin-3-yl)-[1,2,4]triazolo[4,3-c]pyrimidin-5-amine]
12.7 | 55.1 | CN(C)C(=O)c1ccc(-c2cnc(NCc3c(F)ccc4c3CCO4)n3cnnc23)cn1 [Example 140, 5-(5-(((5-fluoro-2,3-dihydrobenzofuran-4-yl)methyl)amino)-[1,2,4]triazolo[4,3-c]pyrimidin-8-yl)-N,N-dimethylpicolinamide]
11.5 | 21.1 | Cc1cc(-c2cnc(NCc3cccc4c3CCO4)n3cnnc23)cnc1S(C)(=O)=O [Example 70, N-((2,3-dihydrobenzofuran-4-yl)methyl)-8-(5-methyl-6-(methylsulfonyl)pyridin-3-yl)-[1,2,4]triazolo[4,3-c]pyrimidin-5-amine]
18.3 | 20 | c1cc(CNc2ncc(-c3ccc(C4CC4)nc3)c3nncn23)c2c(c1)OCC2 [Example 65, 8-(6-cyclopropylpyridin-3-yl)-N-((2,3-dihydrobenzofuran-4-yl)methyl)-[1,2,4]triazolo[4,3-c]pyrimidin-5-amine]
12.8 | 20.6 | CN(C)S(=O)(=O)c1ccc(-c2cnc(NCc3cccc4c3CCO4)n3cnnc23)cc1 [Example 15, 4-(5-(((2,3-dihydrobenzofuran-4-yl)methyl)amino)-[1,2,4]triazolo[4,3-c]pyrimidin-8-yl)-N,N-dimethylbenzenesulfonamide]
6.3 | 13 | Nc1cc(F)c(-c2cnc(NCc3cccc4c3CCO4)n3cnnc23)cn1 [Example 58, 8-(6-amino-4-fluoropyridin-3-yl)-N-((2,3-dihydrobenzofuran-4-yl)methyl)-[1,2,4]triazolo[4,3-c]pyrimidin-5-amine]
6.1 | 8.6 | COC(=O)N1CCN(c2ccc(-c3cnc(NCc4cccc5c4CCO5)n4cnnc34)cn2)CC1 [Example 97, methyl 4-(5-(5-(((2,3-dihydrobenzofuran-4-yl)methyl)amino)-[1,2,4]triazolo[4,3-c]pyrimidin-8-yl)pyridin-2-yl)piperazine-1-carboxylate]
